Usually Kd stands for the free concentration of one partner at which half of the binding sites on the other are occupied at equilibrium, for simple one-to-one binding.

The test deals with T1, Chloroperoxidase (CPO) (Leptoxyphium fumago, UniProt P04963).
T1 sequence (P04963 21-319): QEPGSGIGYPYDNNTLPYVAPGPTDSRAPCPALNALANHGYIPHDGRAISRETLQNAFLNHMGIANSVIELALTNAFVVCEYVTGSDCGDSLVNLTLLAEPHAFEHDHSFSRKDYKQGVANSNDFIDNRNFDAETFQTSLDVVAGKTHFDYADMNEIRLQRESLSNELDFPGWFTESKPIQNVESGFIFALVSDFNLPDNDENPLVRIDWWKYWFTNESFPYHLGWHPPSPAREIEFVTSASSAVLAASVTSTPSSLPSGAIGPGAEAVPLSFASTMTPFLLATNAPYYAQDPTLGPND
Description: paramagnetic NMR T1 relaxation titration with purified CPO. In kind it is binding.

In turn, `c1ccc2[nH]ccc2c1` [indole] yielded a Kd of approximately 21 mM.

These data come from PMC3812394 (Biochemistry, 2013).
